# Key:
# [1] = design: species or system human; settings: in vivo
# [2] = Glucose index test (FBS, Insulin, HbA1c) on collected blood, human application test; type: in vivo; settings: for Glucose, 12 W, Mean / Glucose, 12 W, Median / HbA1, 12 W, Mean / HbA1, 12 W, Median / Insulin, 12 W, Mean / Insulin, 12 W, Median / Glucose, Difference (12 W vs baseline) / Insulin, Difference (12 W vs baseline): ITT 33
# From the text: After conducting a screening test for those who heard the detailed description of the purpose and research method of the present example and agreed in writing as subjects, those who met the selection/exclusion criteria were selected. The specific selection criteria are as follows, and the final selected subjects are 99 men and women who are overweight or obese, and the demographic information of the selected subjects is shown in the following Table 1. Ninety nine (99) subjects were randomly assigned to the high-dose group, low-dose group or control group, with including 33 subjects in each test group. In three test groups, the products were mixed in 100 ml of water and were administered orally twice a day. As the daily dose for one test subject, 12 g allulose in the high-dose group, 6 g allulose and 6 g anhydrous glucose in the low-dose group, and 12 g anhydrous glucose in the control group were divided and provided twice a day. It was administered from the day after the random assignment day (0 day), and was taken with drinking water twice at morning and evening with meals for 12 weeks. At the time of screening hospital visit (visit1), visit2 and final visit (visit5), FBS, Insulin, and HbAlc test was conducted for the collected blood. After calculating the average change of the glucose index (FBS, Insulin, HbAlc) after 12 weeks compared to the base time, technical statistics (mean, standard deviation, median value, minimum value, maximum value) were obtained. The comparative statistic test for the three groups was performed using ANOVA or Kruscal-Wallis test by testing whether data were normally distributed. When there was a significant difference between the three groups, the multiple comparisons were conducted through Tukey-Kramer method. In order to find out whether there was a difference in the mean change in a group, it was analyzed using Paired t-test or Wilcoxon's signed rank test.
# [3] = Blood chemical test (Alkaline phosphatase, AST, ALT, γ-GTP), human application test; type: in vivo; settings: for ALT(SGPT), Mean / ALT(SGPT), Median / AST(SGOT), Mean / AST(SGOT), Median / Alkaline phosphatase, Mean / Alkaline phosphatase, Median / γ-GTP, Mean / γ-GTP, Median: ITT 33, time point not given; for ALT, change at 12 weeks compared to the base time / Alkaline phosphatase, change at 12 weeks compared to the base time / γ-GTP, change at 12 weeks compared to the base time: increased in control
# From the text: After conducting a screening test for those who heard the detailed description of the purpose and research method of the present example and agreed in writing as subjects, those who met the selection/exclusion criteria were selected. The specific selection criteria are as follows, and the final selected subjects are 99 men and women who are overweight or obese, and the demographic information of the selected subjects is shown in the following Table 1. Ninety nine (99) subjects were randomly assigned to the high-dose group, low-dose group or control group, with including 33 subjects in each test group. In three test groups, the products were mixed in 100 ml of water and were administered orally twice a day. As the daily dose for one test subject, 12 g allulose in the high-dose group, 6 g allulose and 6 g anhydrous glucose in the low-dose group, and 12 g anhydrous glucose in the control group were divided and provided twice a day. It was administered from the day after the random assignment day (0 day), and was taken with drinking water twice at morning and evening with meals for 12 weeks. (4) Blood chemical test result The test items performed at screening visit (visit1), visit2 and end visit (visit5) were Alkaline phosphatase, AST, ALT, and γ-GTP. In case of continuous data, for the average change compared to the base time, technical statistics (mean, standard deviation, median value, minimum value, maximum value) were proposed for the average change compared to the base time. The comparative statistic test for the three groups was performed using ANOVA or Kruscal-Wallis test by testing whether data were normally distributed. When there was a significant difference between the three groups, the multiple comparison was conducted through Tukey-Kramer method. In order to find out whether there was a difference in the mean change in a group, it was analyzed using Paired t-test or Wilcoxon's signed rank test. In case of categorical data, technical statistics (frequency, percentage) were proposed, and comparative statistic test was performed between three groups using Chi-square test or Fisher' exact test.
# [4] = high-dose group: allulose 12 g/d oral, 12 weeks
# [5] = high-dose group: allulose 12 g/d oral
# [6] = low-dose group: allulose 6 g/d + anhydrous glucose 6 g/d oral, 12 weeks
# [7] = low-dose group: allulose 6 g/d + anhydrous glucose 6 g/d oral
# [8] = high-dose group: allulose 12 g/d, statistically significant before/after
# [9] = low-dose group: allulose 6 g/d + glucose 6 g/d, statistically significant before/after
smiles,measurement,setting,value
O=C(CO)C(O)C(O)C(O)CO (stereo not shown) [allulose],diastolic blood pressure and pulse rate,[1],did not showed statistically significant difference between three groups
same,"hypoglycemic effect (Glucose, Insulin, HbA1c)","[2]; high- and low-dose groups, 12 weeks, subjects with normal blood sugar",no hypoglycemic effect
same,"Glucose, 12 W, Mean",[2]; [4],94.58 mg/dL
same,"Glucose, 12 W, Median",[2]; [4],94.00 mg/dL
same,"HbA1, 12 W, Mean",[2]; [4],5.66%
same,"HbA1, 12 W, Median",[2]; [4],5.6%
same,"Insulin, 12 W, Mean",[2]; [4],8.7 µIU/mL
same,"Insulin, 12 W, Median",[2]; [4],7.5 µIU/mL
same,"Glucose, Difference (12 W vs baseline)",[2]; [5],-0.12 ± 8.35 mg/dL
same,"Insulin, Difference (12 W vs baseline)",[2]; [5],1.75 ± 5.33 µIU/mL
same,"Glucose, 12 W, Mean",[2]; [6],97.18 mg/dL
same,"Glucose, 12 W, Median",[2]; [6],97.00 mg/dL
same,"HbA1, 12 W, Mean",[2]; [6],5.64%
same,"HbA1, 12 W, Median",[2]; [6],5.6%
same,"Insulin, 12 W, Mean",[2]; [6],9.18 µIU/mL
same,"Insulin, 12 W, Median",[2]; [6],7.1 µIU/mL
same,"Glucose, Difference (12 W vs baseline)",[2]; [7],2.42 ± 10.10 mg/dL
same,"Insulin, Difference (12 W vs baseline)",[2]; [7],1.27 ± 5.15 µIU/mL
same,"ALT(SGPT), Mean",[3]; [5],22.21 U/L
same,"ALT(SGPT), Median",[3]; [5],16.00 U/L
same,"AST(SGOT), Mean",[3]; [5],18.76 U/L
same,"AST(SGOT), Median",[3]; [5],18.00 U/L
same,"Alkaline phosphatase, Mean",[3]; [5],183.21 U/L
same,"Alkaline phosphatase, Median",[3]; [5],169.00 U/L
same,"γ-GTP, Mean",[3]; [5],18.18 U/L
same,"γ-GTP, Median",[3]; [5],14.00 U/L
same,"ALT, change at 12 weeks compared to the base time",[3]; [8],reduced
same,"Alkaline phosphatase, change at 12 weeks compared to the base time",[3]; [8],reduced
same,"γ-GTP, change at 12 weeks compared to the base time",[3]; [8],reduced
same,"ALT(SGPT), Mean",[3]; [7],26.88 U/L
same,"ALT(SGPT), Median",[3]; [7],19.00 U/L
same,"AST(SGOT), Mean",[3]; [7],22.64 U/L
same,"AST(SGOT), Median",[3]; [7],18.00 U/L
same,"Alkaline phosphatase, Mean",[3]; [7],178.97 U/L
same,"Alkaline phosphatase, Median",[3]; [7],170.00 U/L
same,"γ-GTP, Mean",[3]; [7],33.58 U/L
same,"γ-GTP, Median",[3]; [7],19.00 U/L
same,"ALT, change at 12 weeks compared to the base time",[3]; low-dose group: allulose 6 g/d + glucose 6 g/d,reduced
same,"Alkaline phosphatase, change at 12 weeks compared to the base time",[3]; [9],reduced
same,"γ-GTP, change at 12 weeks compared to the base time",[3]; [9],reduced

# Reference: patent publication US11260066B2, “Inhibiting reduction of lean body mass and inhibiting accumulation of liver fat by administering allulose” (SAMYANG CORPORATION, priority 2017, dated 2022)
